Assay results from US20110009374A1, “METHOD OF WOUND HEALING AND SCAR MODULATION” (priority 2009, published 2011).
Where “and” joins values, the source holds several entries; their conditions need not be identical. Equal entries are not always repeated.

Tests used:
Assay type in all cases: in vivo
[1] = system: linear subcutaneous-deep incision wounds in hairless mice (Skh:HR-1); test: Example 2 wound healing in hairless mice: healing evaluation by wound width
Description: (§1) Twelve hairless mice (Skh:HR-1) with an average weight of […] were treated topically with a local anesthetic (LMX-4, Ferndale Laboratories, Inc.) for 30 minutes prior to wounding for dermal anesthesia. Antiseptics were not used because of the possibility of their local effect on the wound healing process.
(§2) The mice were subdivided into two groups, A and B. Each mouse received three linear, 10 mm long, subcutaneous-deep incision wounds parallel to the spinal column. The first incision was near the spinal column on the left side (C), one at a position 10 mm away from the first on the same side (L), and one on the right side about 10 mm from the center line or spinal column (R). All incision wounds were made with a 0.3 mm blade surgical blade. Because of the loose nature of the hairless mouse epidermis the wounds spread to as wide as 3 mm. Each mouse was housed separately.
(§3) 1) 0.25% Formulations: water (79.75%), ethanol (18%), methylprednisolone acetate or prednisolone acetate (0.25%), and ammonium acryloyldimethyltaurate/VP copolymer (2%).
(§4) 2) 1% Formulations: water (79%), ethanol (18%), methylpredinisolone acetate or prednisolone acetate (1%), and ammonium acryloyldimethyltaurate/VP copolymer (2%).
(§5) In Group A, wounds C and L were treated with the 0.25% and 1% methylprednisolone acetate formulations, respectively, and wound R was the control or untreated wound. In Group B, wounds C and L were treated with the 0.25% and 1% prednisolone acetate formulations, respectively and wound R was the control. The study drug (methylprednisolone or prednisolone) was applied to the treatment wounds twice daily (8 hours apart) beginning 1 h after the incision on day 1 and continuing through day 21. The wounds were far enough apart to avoid the spread of the treatment gel from the treated wound to the control wound. No additional physical barrier, such as a gauze bandage, was used.
Healing evaluation was made by measuring wound closure, which was assessed by the width of the wound. The width of each scar was measured with digital calipers at the widest point while subject was lying motionless, on its ventral side. Digital photographs were taken to record the healing process. The mean width of wound was recorded on days 1, 3, 5, 7, 9, 11, 13, 15, 17, 19 and 21.

[2] = system: linear subcutaneous-deep wounds in hairless mice (Skh:HR-1); test: Example 1 wound healing in hairless mice: healing evaluation by wound width; settings: for Scar Width at widest margin: individual subject, 1% formulation topically twice daily; for Scar Width at widest margin / Scar Width at widest margin, Mean: L wound; for Scar Width at widest margin, Mean: mean of 12 subjects, 1% formulation twice daily
Description: as §1, with “for dermal anesthesia for” for “for”, “wounding.” for “wounding for dermal anesthesia.”
(§6) Two linear subcutaneous-deep wounds were made bilaterally with a 0.3 mm blade surgical knife on the dorsal side of each subject approximately 10 mm on each side of the spinal column. Because of the loose nature of the hairless mouse epidermis the wounds spread to as wide as 3 mm. Each mouse was housed separately.
(§7) The test formulation comprised the following ingredients (by weight percent): water (79%), ethanol (18%), prednisolone acetate (1%), and ammonium acryloyldimethyltaurate/VP copolymer (2%).
(§8) In each test subject, the right wound was assigned to a control (i.e., no treatment) and the left would was treated with a the 1% prednisolone acetate test formulation, applied twice daily (8 hours apart) beginning 1 h after the incision on day 1 and continuing through day 21. The wounds were about 20 mm apart to prevent the treatment gel from migrating from the treatment wound to the control wound.
Healing evaluation was made by measuring wound closure, which was assessed by the width of the wound. Evaluation was made on days 1, 3, 5, 10, and 14. The width of each scar was measured with digital calipers at the widest point while subject was lying motionless on its ventral side. Digital photographs were taken to record healing process.

[3] = system: linear subcutaneous-deep incision wounds in hairless mice (Skh:HR-1); test: Example 2 scar evaluation by Vancouver Scale at day 21 and gross evaluation; set-up: key: Vancouver Scale subscores (18-point total), mean of two observers
Description: as §1, §2, §3, §4, §5
(§9) Each mouse was kept in its cage during days 14-21. On day 21, each scar was assessed according to the Vancouver Scale (18 points) under magnification by two observers independently and the scores were averaged and recorded. Progressive re-epithelializaton of the wound surface from the wound edges continued until the wound surface was completely closed at a time between days 14 and 21.

[4] = system: linear subcutaneous-deep wounds in hairless mice (Skh:HR-1); test: Example 1 scar evaluation by Vancouver Scale at day 21; settings: 1% formulation
Description: as §1, with “for dermal anesthesia for” for “for”, “wounding.” for “wounding for dermal anesthesia.”
as §6, §7, §8
as §9, with “re-epithelialization” for “re-epithelializaton”

[5] = Day 1, wound C, 0.25% formulation twice daily
[6] = Day 1, wound L, 1% formulation twice daily
[7] = Day 3, wound C, 0.25% formulation twice daily
[8] = Day 3, wound L, 1% formulation twice daily
[9] = Day 5, wound C, 0.25% formulation twice daily
[10] = Day 5, wound L, 1% formulation twice daily
[11] = Day 7, wound C, 0.25% formulation twice daily
[12] = Day 7, wound L, 1% formulation twice daily
[13] = Day 9, wound C, 0.25% formulation twice daily
[14] = Day 9, wound L, 1% formulation twice daily
[15] = Day 11, wound C, 0.25% formulation twice daily
[16] = Day 11, wound L, 1% formulation twice daily
[17] = Day 13, wound C, 0.25% formulation twice daily
[18] = Day 13, wound L, 1% formulation twice daily
[19] = Day 15, wound C, 0.25% formulation twice daily
[20] = Day 15, wound L, 1% formulation twice daily
[21] = Day 17, wound C, 0.25% formulation twice daily
[22] = Day 17, wound L, 1% formulation twice daily
[23] = Day 19, wound C, 0.25% formulation twice daily
[24] = Day 19, wound L, 1% formulation twice daily
[25] = Day 21, wound C, 0.25% formulation twice daily
[26] = Day 21, wound L, 1% formulation twice daily
[27] = Day 21, individual subject, L wound
[28] = Day 21, mean of 12 subjects, L wound

## CC(=O)OCC(=O)[C@@]1(O)CC[C@H]2[C@@H]3CCC4=CC(=O)C=C[C@]4(C)[C@H]3[C@@H](O)C[C@@]21C [prednisolone acetate]
[1]; [5]
  Mean Wound Width at Widest Margin: 3.1 ± 0.3 mm
[1]; [6]
  Mean Wound Width at Widest Margin: 3.0 ± 0.2 mm
[1]; [7]
  Mean Wound Width at Widest Margin: 2.5 ± 0.2 mm
[1]; [8]
  Mean Wound Width at Widest Margin: 2.4 ± 0.3 mm
[1]; [9]
  Mean Wound Width at Widest Margin: 1.7 ± 0.2 mm
[1]; [10]
  Mean Wound Width at Widest Margin: 1.8 ± 0.4 mm
[1]; [11]
  Mean Wound Width at Widest Margin: 1.4 ± 0.2 mm
[1]; [12]
  Mean Wound Width at Widest Margin: 1.5 ± 0.2 mm
[1]; [13]
  Mean Wound Width at Widest Margin: 1.1 ± 0.2 mm
[1]; [14]
  Mean Wound Width at Widest Margin: 1.0 ± 0.2 mm
[1]; [15]
  Mean Wound Width at Widest Margin: 0.6 ± 0.2 mm
[1]; [16]
  Mean Wound Width at Widest Margin: 0.6 ± 0.2 mm
[1]; [17]
  Mean Wound Width at Widest Margin: 0.1 ± 0.2 mm
[1]; [18]
  Mean Wound Width at Widest Margin: 0.2 ± 0.3 mm
[1]; [19]
  Mean Wound Width at Widest Margin: 0 mm
[1]; [20]
  Mean Wound Width at Widest Margin: 0 mm
[1]; [21]
  Mean Wound Width at Widest Margin: 0 mm
[1]; [22]
  Mean Wound Width at Widest Margin: 0 mm
[1]; [23]
  Mean Wound Width at Widest Margin: 0 mm
[1]; [24]
  Mean Wound Width at Widest Margin: 0 mm
[1]; [25]
  Mean Wound Width at Widest Margin: 0 mm
[1]; [26]
  Mean Wound Width at Widest Margin: 0 mm
[2]; 1% formulation
  redness and marginal line of treated wounds vs control: less redness and a finer marginal line
[2]; 1% formulation, number of scars out of 12
  scars healed with some degree of contracture: 8 out of the 12
[2]; 1% formulation, treated and control wounds
  signs of infection: Neither the control nor the treated wounds showed signs of infection
[2]; Day 1
  Scar Width at widest margin: 3.0 mm (2×) and 2.6 mm and 2.9 mm (4×) and 2.7 mm (3×) and 2.8 mm (2×)
  Scar Width at widest margin, Mean: 2.8 mm
[2]; Day 3
  Scar Width at widest margin: 1.9 mm (3×) and 1.8 mm (4×) and 1.4 mm and 1.5 mm and 1.7 mm (3×)
  Scar Width at widest margin, Mean: 1.8 mm
[2]; Day 5
  Scar Width at widest margin: 1.7 mm (3×) and 1.6 mm (3×) and 1.1 mm and 1.3 mm and 1.4 mm (3×) and 1.5 mm
  Scar Width at widest margin, Mean: 1.5 mm
[2]; Day 10
  Scar Width at widest margin: 0.6 mm (4×) and 0.2 mm and 0.4 mm (2×) and 0.5 mm (3×) and 0.3 mm and 0.7 mm
  Scar Width at widest margin, Mean: 0.5 mm
[2]; Day 14
  Scar Width at widest margin: 0.2 mm (2×) and 0.0 mm (10×)
  Scar Width at widest margin, Mean: 0 mm and 0.0 mm
[2]; day 3, 1% formulation
  mean difference in wound width, treated vs control: 0.4 mm
[2]; day 5, 1% formulation
  mean difference in wound width, treated vs control: 0.4 mm
[2]; day 7, 1% formulation
  mean difference in wound width, treated vs control: 0.5 mm
[2]; day 10, 1% formulation
  mean difference in wound width, treated vs control: 0.5 mm
[2]; day 14, 1% formulation
  mean difference in wound width, treated vs control: 0.7 mm
[2]; evaluation and healing period, 1% formulation
  retarding of healing phases: No apparent retarding of any phase of healing
[2]; evident by day 5, 1% formulation
  contracture of healed epidermal layer vs control: less contracture
[2]; first 14 days, 1% formulation
  gross appearance of treated wounds (crusting, infiltrates, exudates): clear of crusting, infiltrates, and exudates
[2]; over a 14-day period, 1% formulation
  healing vs control group by wound width: faster than the control group
[3]; wound C, 0.25% formulation
  Mean Vancouver Scale Scar Scoring, Height: 0
  Mean Vancouver Scale Scar Scoring, Pigmentation: 1
  Mean Vancouver Scale Scar Scoring, Pliability: 2.5
  Mean Vancouver Scale Scar Scoring, Vascularity: 0
[3]; wound L, 1% formulation
  Mean Vancouver Scale Scar Scoring, Height: 0
  Mean Vancouver Scale Scar Scoring, Pigmentation: 1
  Mean Vancouver Scale Scar Scoring, Pliability: 1.0
  Mean Vancouver Scale Scar Scoring, Vascularity: 0
[4]; [27]
  Averaged Vancouver Scale Scar Scoring, Height: 0
  Averaged Vancouver Scale Scar Scoring, Pigmentation: 1.5 and 1 (11×)
  Averaged Vancouver Scale Scar Scoring, Pliability: 1 (10×) and 1.5 (2×)
  Averaged Vancouver Scale Scar Scoring, Vascularity: 1 (2×) and 0 (10×)
[4]; [28]
  Averaged Vancouver Scale Scar Scoring, Height, Mean: 0
  Averaged Vancouver Scale Scar Scoring, Pigmentation, Mean: 1.1
  Averaged Vancouver Scale Scar Scoring, Pliability, Mean: 1.1
  Averaged Vancouver Scale Scar Scoring, Vascularity, Mean: 0.16
[4]; day 21
  global assessment of scars by Vancouver Scale, treated vs control: significant difference in pliability, pigmentation and vascularity
  pigmentation vs control: marginally better
  vascularity in treated areas: returned to virtually normal

## CC(=O)OCC(=O)[C@@]1(O)CC[C@H]2[C@@H]3C[C@H](C)C4=CC(=O)C=C[C@]4(C)[C@H]3[C@@H](O)C[C@@]21C [methylprednisolone acetate]
[1]; [5]
  Mean Wound Width at Widest Margin: 3.1 ± 0.3 mm
[1]; [6]
  Mean Wound Width at Widest Margin: 3.0 ± 0.2 mm
[1]; [7]
  Mean Wound Width at Widest Margin: 2.5 ± 0.2 mm
[1]; [8]
  Mean Wound Width at Widest Margin: 2.4 ± 0.3 mm
[1]; [9]
  Mean Wound Width at Widest Margin: 2.0 ± 0.3 mm
[1]; [10]
  Mean Wound Width at Widest Margin: 1.9 ± 0.4 mm
[1]; [11]
  Mean Wound Width at Widest Margin: 1.5 ± 0.2 mm
[1]; [12]
  Mean Wound Width at Widest Margin: 1.4 ± 0.2 mm
[1]; [13]
  Mean Wound Width at Widest Margin: 1.0 ± 0.3 mm
[1]; [14]
  Mean Wound Width at Widest Margin: 0.9 ± 0.3 mm
[1]; [15]
  Mean Wound Width at Widest Margin: 0.5 ± 0.2 mm
[1]; [16]
  Mean Wound Width at Widest Margin: 0.5 ± 0.1 mm
[1]; [17]
  Mean Wound Width at Widest Margin: 0.1 ± 0.3 mm
[1]; [18]
  Mean Wound Width at Widest Margin: 0.1 ± 0.2 mm
[1]; [19]
  Mean Wound Width at Widest Margin: 0 mm
[1]; [20]
  Mean Wound Width at Widest Margin: 0 mm
[1]; [21]
  Mean Wound Width at Widest Margin: 0 mm
[1]; [22]
  Mean Wound Width at Widest Margin: 0 mm
[1]; [23]
  Mean Wound Width at Widest Margin: 0 mm
[1]; [24]
  Mean Wound Width at Widest Margin: 0 mm
[1]; [25]
  Mean Wound Width at Widest Margin: 0 mm
[1]; [26]
  Mean Wound Width at Widest Margin: 0 mm
[3]; wound C, 0.25% formulation
  Mean Vancouver Scale Scar Scoring, Height: 0
  Mean Vancouver Scale Scar Scoring, Pigmentation: 1
  Mean Vancouver Scale Scar Scoring, Pliability: 2.0
  Mean Vancouver Scale Scar Scoring, Vascularity: 0
[3]; wound L, 1% formulation
  Mean Vancouver Scale Scar Scoring, Height: 0
  Mean Vancouver Scale Scar Scoring, Pigmentation: 1
  Mean Vancouver Scale Scar Scoring, Pliability: 1.5
  Mean Vancouver Scale Scar Scoring, Vascularity: 0
